Data from paper PMC7011996 (Journal of Enzyme Inhibition and Medicinal Chemistry, 2017).

Molecular target: T1, hCA XII (Homo sapiens, UniProt O43570)
T1 construct: gene CA12
Assay: stopped-flow CO2 hydration assay
Format: biochemical

T1 sequence (O43570 25-354): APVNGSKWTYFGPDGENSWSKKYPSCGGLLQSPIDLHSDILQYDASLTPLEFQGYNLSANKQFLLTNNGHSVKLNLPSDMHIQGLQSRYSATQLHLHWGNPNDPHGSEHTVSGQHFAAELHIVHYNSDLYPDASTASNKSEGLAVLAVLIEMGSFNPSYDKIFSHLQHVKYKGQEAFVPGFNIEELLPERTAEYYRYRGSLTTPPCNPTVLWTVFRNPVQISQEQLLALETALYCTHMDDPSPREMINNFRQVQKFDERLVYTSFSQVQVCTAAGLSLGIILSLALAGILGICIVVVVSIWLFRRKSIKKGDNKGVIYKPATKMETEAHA

NS(=O)(=O)c1ccc(CC[n+]2c(-c3ccccc3)cc(-c3ccccc3)cc2-c2ccccc2)cc1 [compound 2, 1-(4-sulfamoylphenyl-ethyl)-2,4,6-triphenylpyridinium perchlorate]
Ki: 12.5 nM
